Values of other authors in patent US10781471B2, “NRAS related cancer therapy” (Ruijin Hospital Affiliated to Shanghai Jiao Tong University …, priority 2014, dated 2020).

System: acute lymphoblastic leukemia (ALL)
Conditions: methotrexate 3.3 mg/m^2 in combination with 60 mg/m^2 of prednisone, given daily; induction in ALL patients

CN(Cc1cnc2nc(N)nc(N)c2n1)c1ccc(C(=O)N[C@@H](CCC(=O)O)C(=O)O)cc1 [methotrexate, Methotrexate]
period within which remission was usually produced: 4 to 6 weeks | remissions, share of patients treated: 50%
